# Assay results taken from US10681909B2, “Herbicidal triazoles” (FMC Corporation, priority 2014, dated 2020).
# Key:
# foxtail, giant [1] = assay: Test A preemergence; format: in vivo, Setaria faberii; settings: 0 to 100 scale (0 no effect, 100 complete control)
# Outline: (§1)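 Test chemicals in a non-phytotoxic solvent with surfactant were applied as a directed soil spray preemergence to seeds sown in loam/sand. Postemergence sprays went to plants 2–10 cm tall at the one- to two-leaf stage. A dash means no result.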
# pigweed [2] = assay: Test A preemergence; format: in vivo, Amaranthus retroflexus; settings: 0 to 100 scale (0 no effect, 100 complete control)
# Outline: as §1
# barnyardgrass [3] = assay: Test A preemergence; format: in vivo, Echinochloa crus-galli; settings: 0 to 100 scale (0 no effect, 100 complete control)
# Outline: as §1
# foxtail, giant [4] = assay: Test A postemergence; format: in vivo, Setaria faberii; settings: 0 to 100 scale (0 no effect, 100 complete control), approx. 10 d
# Outline: as §1
# corn [5] = assay: Test A postemergence; format: in vivo, Zea mays; settings: 0 to 100 scale (0 no effect, 100 complete control), approx. 10 d
# Outline: as §1
# wheat [6] = assay: Test A postemergence; format: in vivo, Triticum aestivum; settings: 0 to 100 scale (0 no effect, 100 complete control), approx. 10 d
# Outline: as §1
# barnyardgrass [7] = assay: Test B flooded paddy test; format: in vivo, Echinochloa crus-galli; settings: applied to paddy water at 2-leaf stage, visual rating after 13 to 15 d, scale 0 (no effect) to 100 (complete control)
# Excerpt: (§2) At time of treatment, test pots were flooded to 3 cm above the soil surface, treated by application of test compounds directly to the paddy water, and then maintained at that water depth for the duration of the test. Treated plants and controls were maintained in a greenhouse for 13 to 15 d, after which time all species were compared to controls and visually evaluated. […] A dash (-) response means no test result.
# ducksalad = assay: Test B flooded paddy test; format: in vivo, Heteranthera limosa; settings: applied to paddy water at 2-leaf stage, visual rating after 13 to 15 d, scale 0 (no effect) to 100 (complete control)
# Excerpt: as §2
# barnyardgrass [8] = assay: Test A postemergence; format: in vivo, Echinochloa crus-galli; settings: 0 to 100 scale (0 no effect, 100 complete control), approx. 10 d
# Outline: as §1
# morningglory [9] = assay: Test A preemergence; format: in vivo, Ipomoea spp.; settings: 0 to 100 scale (0 no effect, 100 complete control)
# Excerpt: (§3) Seeds of plant species selected from barnyardgrass (Echinochloa crus-galli), crabgrass, large (large crabgrass, Digitaria sanguinalis), kochia (Kochia scoparia), ragweed (common ragweed, Ambrosia elatior), foxtail, giant (giant foxtail, Setaria faberii), morningglory (Ipomoea spp.), pigweed (Amaranthus retroflexus), velvetleaf (Abutilon theophrasti), ryegrass, Italian (Italian ryegrass, Lolium multiflorum), wheat (Triticum aestivum), and corn (Zea mays) were planted into a blend of loam soil and sand and treated preemergence with a directed soil spray using test chemicals formulated in a non-phytotoxic solvent mixture which included a surfactant. At the same time, plants selected from these crop and weed species and also blackgrass (Alopecurus myosuroides), and galium (catchweed bedstraw, Galium aparine), were planted in pots containing the same blend of loam soil and sand and treated with postemergence applications of test chemicals formulated in the same manner. Plants ranged in height from 2 to 10 cm and were in the one- to two-leaf stage for the postemergence treatment. […] A dash (-) response means no test result.
# crabgrass, large [10] = assay: Test A postemergence; format: in vivo, Digitaria sanguinalis; settings: 0 to 100 scale (0 no effect, 100 complete control), approx. 10 d
# Excerpt: as §3
# wheat [11] = assay: Test A preemergence; format: in vivo, Triticum aestivum; settings: 0 to 100 scale (0 no effect, 100 complete control)
# Excerpt: as §3
# morningglory [12] = assay: Test A postemergence; format: in vivo, Ipomoea spp.; settings: 0 to 100 scale (0 no effect, 100 complete control), approx. 10 d
# Excerpt: as §3
# crabgrass, large [13] = assay: Test A preemergence; format: in vivo, Digitaria sanguinalis; settings: 0 to 100 scale (0 no effect, 100 complete control)
# Excerpt: as §3
# pigweed [14] = assay: Test A postemergence; format: in vivo, Amaranthus retroflexus; settings: 0 to 100 scale (0 no effect, 100 complete control), approx. 10 d
# Outline: as §1
# corn [15] = assay: Test A preemergence; format: in vivo, Zea mays; settings: 0 to 100 scale (0 no effect, 100 complete control)
# Excerpt: as §3
# velvetleaf [16] = assay: Test A postemergence; format: in vivo, Abutilon theophrasti; settings: 0 to 100 scale (0 no effect, 100 complete control), approx. 10 d
# Excerpt: as §3
# velvetleaf [17] = assay: Test A preemergence; format: in vivo, Abutilon theophrasti; settings: 0 to 100 scale (0 no effect, 100 complete control)
# Excerpt: as §3
# sedge, umbrella = assay: Test B flooded paddy test; format: in vivo, Cyperus difformis; settings: applied to paddy water at 2-leaf stage, visual rating after 13 to 15 d, scale 0 (no effect) to 100 (complete control)
# Excerpt: as §2
# rice = assay: Test B flooded paddy test; format: in vivo, Oryza sativa; settings: applied to paddy water at 2-leaf stage, visual rating after 13 to 15 d, scale 0 (no effect) to 100 (complete control)
# Excerpt: as §2
Structure (SMILES),"Plant response rating, Foxtail, Giant (foxtail, giant [1]; 125 g ai/ha)","Plant response rating, Foxtail, Giant (foxtail, giant [1]; 500 g ai/ha, approx. 10 d)","Plant response rating, Pigweed (pigweed [2]; 125 g ai/ha)","Plant response rating, Pigweed (pigweed [2]; 500 g ai/ha, approx. 10 d)","Plant response rating, Barnyardgrass (barnyardgrass [3]; 125 g ai/ha)","Plant response rating, Barnyardgrass (barnyardgrass [3]; 500 g ai/ha, approx. 10 d)","Plant response rating, Foxtail, Giant (foxtail, giant [4]; 125 g ai/ha)","Plant response rating, Foxtail, Giant (foxtail, giant [4]; 500 g ai/ha)","Plant response rating, Corn (corn [5]; 125 g ai/ha)","Plant response rating, Corn (corn [5]; 500 g ai/ha)","Plant response rating, Wheat (wheat [6]; 125 g ai/ha)","Plant response rating, Wheat (wheat [6]; 500 g ai/ha)","Plant response rating, Barnyardgrass (barnyardgrass [8]; 125 g ai/ha)","Plant response rating, Barnyardgrass (barnyardgrass [8]; 500 g ai/ha)","Plant response rating, Morningglory (morningglory [9]; 125 g ai/ha)","Plant response rating, Morningglory (morningglory [9]; 500 g ai/ha, approx. 10 d)","Plant response rating, Crabgrass, Large (crabgrass, large [10]; 125 g ai/ha)","Plant response rating, Crabgrass, Large (crabgrass, large [10]; 500 g ai/ha)","Plant response rating, Wheat (wheat [11]; 125 g ai/ha)","Plant response rating, Wheat (wheat [11]; 500 g ai/ha, approx. 10 d)",other results
CCCc1nc(-c2ccc(Cl)cc2)nn1Cc1ccnc(C(F)(F)F)c1 [Compound 22],100,100,100,100,40,70,70,80,20,50,30,40,40,60,10,70,100,100,10,20,"Plant response rating, Barnyardgrass, Flood (barnyardgrass [7]; 250 g ai/ha): 0; Plant response rating, Ducksalad, Flood (ducksalad; 250 g ai/ha): 0; Plant response rating, Morningglory (morningglory [12]; 125 g ai/ha): 50; Plant response rating, Morningglory (morningglory [12]; 500 g ai/ha): 80; Plant response rating, Crabgrass, Large (crabgrass, large [13]; 125 g ai/ha): 100; Plant response rating, Crabgrass, Large (crabgrass, large [13]; 500 g ai/ha, approx. 10 d): 100; Plant response rating, Pigweed (pigweed [14]; 125 g ai/ha): 100; Plant response rating, Pigweed (pigweed [14]; 500 g ai/ha): 100; Plant response rating, Corn (corn [15]; 125 g ai/ha): 10; Plant response rating, Corn (corn [15]; 500 g ai/ha, approx. 10 d): 20; Plant response rating, Velvetleaf (velvetleaf [16]; 125 g ai/ha): 60; Plant response rating, Velvetleaf (velvetleaf [16]; 500 g ai/ha): 100; Plant response rating, Velvetleaf (velvetleaf [17]; 125 g ai/ha): 20; Plant response rating, Velvetleaf (velvetleaf [17]; 500 g ai/ha, approx. 10 d): 40; Plant response rating, Sedge, Umbrella, Flood (sedge, umbrella; 250 g ai/ha): 0; Plant response rating, Rice, Flood (rice; 250 g ai/ha): 0"
CCCn1nc(-c2ccc(F)cc2)nc1C(=O)c1ccnc(C(F)(F)F)c1 [Compound 20],80,90,20,90,0,80,10,10,20,20,20,30,0,20,0,20,20,10,0,20,"Plant response rating, Barnyardgrass, Flood (barnyardgrass [7]; 125 g ai/ha): 0; Plant response rating, Ducksalad, Flood (ducksalad; 125 g ai/ha): 0; Plant response rating, Morningglory (morningglory [12]; 125 g ai/ha): 10; Plant response rating, Morningglory (morningglory [12]; 500 g ai/ha): 10; Plant response rating, Crabgrass, Large (crabgrass, large [13]; 125 g ai/ha): 20; Plant response rating, Crabgrass, Large (crabgrass, large [13]; 500 g ai/ha, approx. 10 d): 100; Plant response rating, Pigweed (pigweed [14]; 125 g ai/ha): 40; Plant response rating, Pigweed (pigweed [14]; 500 g ai/ha): 90; Plant response rating, Corn (corn [15]; 125 g ai/ha): 0; Plant response rating, Corn (corn [15]; 500 g ai/ha, approx. 10 d): 0; Plant response rating, Velvetleaf (velvetleaf [16]; 125 g ai/ha): 0; Plant response rating, Velvetleaf (velvetleaf [16]; 500 g ai/ha): 40; Plant response rating, Velvetleaf (velvetleaf [17]; 125 g ai/ha): 0; Plant response rating, Velvetleaf (velvetleaf [17]; 500 g ai/ha, approx. 10 d): 0; Plant response rating, Sedge, Umbrella, Flood (sedge, umbrella; 125 g ai/ha): 0; Plant response rating, Rice, Flood (rice; 125 g ai/ha): 0"
Cc1nc(-c2ccc(C(F)(F)F)cc2)nn1Cc1ccnc(C(F)(F)F)c1 [Compound 7],80,100,90,100,20,80,60,90,30,50,20,50,40,80,10,60,50,90,0,10,"Plant response rating, Barnyardgrass, Flood (barnyardgrass [7]; 250 g ai/ha): 0; Plant response rating, Ducksalad, Flood (ducksalad; 250 g ai/ha): 0; Plant response rating, Morningglory (morningglory [12]; 125 g ai/ha): 50; Plant response rating, Morningglory (morningglory [12]; 500 g ai/ha): 80; Plant response rating, Crabgrass, Large (crabgrass, large [13]; 125 g ai/ha): 90; Plant response rating, Crabgrass, Large (crabgrass, large [13]; 500 g ai/ha, approx. 10 d): 100; Plant response rating, Pigweed (pigweed [14]; 125 g ai/ha): 100; Plant response rating, Pigweed (pigweed [14]; 500 g ai/ha): 100; Plant response rating, Corn (corn [15]; 125 g ai/ha): 10; Plant response rating, Corn (corn [15]; 500 g ai/ha, approx. 10 d): 10; Plant response rating, Velvetleaf (velvetleaf [16]; 125 g ai/ha): 80; Plant response rating, Velvetleaf (velvetleaf [16]; 500 g ai/ha): 100; Plant response rating, Velvetleaf (velvetleaf [17]; 125 g ai/ha): 20; Plant response rating, Velvetleaf (velvetleaf [17]; 500 g ai/ha, approx. 10 d): 70; Plant response rating, Sedge, Umbrella, Flood (sedge, umbrella; 250 g ai/ha): 85; Plant response rating, Rice, Flood (rice; 250 g ai/ha): 0"
